From PMC11247627, “Evaluation of Antibacterial Functionalized Dihydropyrimidine Photoaffinity Probes Toward Mechanism of Action Studies” (ACS Medicinal Chemistry Letters, 2024)
Values after ≈ are worked out from the molar mass of the structure shown. Like-named read-outs stand apart in the source and are kept apart here.

Tests used:
Format in all cases: cell-based
[1] = system: Staphylococcus aureus ATCC 43300 (MRSA); experiment: Antibacterial broth microdilution assay (MIC), MRSA ATCC 43300; conditions: 18 h; for MIC: Staphylococcus aureus, read-out: MIC ATCC 43300
Description: (§1) These 24 DHP analogues were then screened for inhibition of Staphylococcus aureus growth using microdilution assays. Growth inhibition was examined in methicillin-sensitive S. aureus (ATCC 12600) and two strains of MRSA (ATCC 33591 and ATCC 43300). Antibiotic controls were included in the screen, including carbenicillin, erythromycin, gentamycin, trimethoprim, and vancomycin, and minimum inhibitory concentrations (MICs) were determined for each compound, which were defined as the concentration required to inhibit >95% of bacterial growth (Table 1).
(§2) Antibacterial Microdilution Assay (MIC Determination)
(§3) 1240 The MIC determination assays were performed in a BSL-2 laboratory with appropriate security and biosafety measures. The MICs were determined using a broth microdilution assay closely following the guidelines of the Clinical and Laboratories Standards Institute (CLSI). MICs were determined in duplicate for two biological replicates using 2-fold serial dilutions of test compounds or commercial antibiotics in cation-adjusted Mueller-Hinton broth. The central 60 wells of 96-well plates were 1245 prepared with the compound of interest at the indicated concentration, where 2 µL of the compound in DMSO were added prior to the addition of the culture. Overnight cultures of the different Staphylococcus aureus strains were diluted to provide an initial inoculum of approximately 5 X 10 5 CFU/mL that was delivered to each well in 198 µL of culture (final DMSO concentration of ~1%). Initial inoculum concentrations were verified by plating to count CFU/mL. Each plate was equipped with 1250 experimental controls for full growth (6 wells) and full growth inhibition (6 wells), and all control wells were in the presence of 1% DMSO. The outer 36 wells were filled with 200 µL of culture each to prevent growth effects on the interior 60 wells. The plates were incubated at 37 °C for 18 hours, at which time they were removed from the incubator and were allowed to equilibrate to room temperature for 30 minutes. Absorbance of each well at 600 nm was then read using a microplate reader to 1255 determine the MIC, and visual confirmation of growth inhibition was also performed. If variation was seen in the experimental values, the highest value of two independent trials was listed.

[2] = system: Staphylococcus aureus ATCC 12600; experiment: Antibacterial broth microdilution assay (MIC), methicillin-sensitive S. aureus ATCC 12600; conditions: for MIC: Staphylococcus aureus, read-out: MIC ATCC 12600
Description: as §1, §2, §3

[3] = system: Staphylococcus aureus ATCC 33591 (MRSA); experiment: Antibacterial broth microdilution assay (MIC), MRSA ATCC 33591; conditions: 18 h; for MIC: Staphylococcus aureus, read-out: MIC ATCC 33591
Description: as §1, §2, §3

Staphylococcus aureus = experiment: S. aureus growth inhibition (all three strains or strain not specified); conditions: for antibacterial potency of alkynyl esters compared to their ethyl variants: MIC comparison, Table 3; for MIC: Staphylococcus aureus, read-out: concentration inhibiting S. aureus growth (MIC)
Description: as §1, §2, §3

[4] = amount inhibiting >95% of growth (A600), suffix 'I' = partial growth inhibition at the value, >95% at higher concentrations
[5] = ATCC12600, amount inhibiting >95% of growth (A600), 18 h, suffix 'I' = partial growth inhibition at the value, >95% at higher concentrations
[6] = all three S. aureus strains or strain not specified

Molecule | MIC [1, 4] [µg/mL] | MIC [2, 5] [µg/mL] | antibacterial potency of alkynyl esters compared to their ethyl variants (Staphylococcus aureus) | also measured
CCOC(=O)C1=C(c2cccc(C)c2)NC(N)=NC1c1ccc(CC(C)C)cc1 (centres unmarked) [7j] | 4 (≈ 10.2 µM) | 4 (≈ 10.2 µM) | – | MIC [3, 4]: 4 µg/mL (≈ 10.2 µM)
CCOC(=O)C1=C(c2ccccc2)NC(N)=NC1c1ccc(C2(C(F)(F)F)N=N2)cc1 (centres unmarked) [26a] | 4 (≈ 9.32 µM) | 4 (≈ 9.32 µM) | – | –
CCOC(=O)C1=C(c2ccc(C3(C(F)(F)F)N=N3)cc2)NC(N)=NC1c1cc(Cl)cc(Cl)c1 (centres unmarked) [26b] | 4 (≈ 8.03 µM) | 4 (≈ 8.03 µM) | – | –
CCOC(=O)C1=C(c2ccc(C3(C(F)(F)F)N=N3)cc2)NC(N)=NC1c1ccc(CC(C)C)cc1 (centres unmarked) [26c] | 2 (≈ 4.12 µM) | 2 (≈ 4.12 µM) | – | –
C#CCCOC(=O)C1=C(c2ccccc2)NC(N)=NC1c1cc(Cl)cc(Cl)c1 (centres unmarked) [26d] | 16 (≈ 38.6 µM) | 16 (≈ 38.6 µM) | 2-fold decreased potency | –
C#CCCOC(=O)C1=C(c2ccccc2)NC(N)=NC1c1ccc(C2(C(F)(F)F)N=N2)cc1 (centres unmarked) [26e] | 8 (≈ 17.6 µM) | 8 (≈ 17.6 µM) | 2-fold decreased potency | –
C#CCCCOC(=O)C1=C(c2ccccc2)NC(N)=NC1c1cc(Cl)cc(Cl)c1 (centres unmarked) [26f] | 4 (≈ 9.34 µM) | 4 (≈ 9.34 µM) | 2-fold increased potency | –
C#CCCCOC(=O)C1=C(c2ccccc2)NC(N)=NC1c1ccc(C2(C(F)(F)F)N=N2)cc1 (centres unmarked) [26g] | 4 (≈ 8.56 µM) | 4 (≈ 8.56 µM) | equal potency | –
C#CCCCOC(=O)C1=C(c2ccc(C3(C(F)(F)F)N=N3)cc2)NC(N)=NC1c1ccc(CC(C)C)cc1 (centres unmarked) [26h] | 2 (≈ 3.82 µM) | 2 (≈ 3.82 µM) | equal potency | MIC (Staphylococcus aureus; [6]): 2 µg/mL (≈ 3.82 µM)
CC1(C)S[C@@H]2[C@H](NC(=O)C(C(=O)O)c3ccccc3)C(=O)N2[C@H]1C(=O)O (some centres unmarked) [carbenicillin, reference compound] | 32 (≈ 84.6 µM) | 2 (≈ 5.29 µM) | – | MIC [3, 4]: 128 µg/mL (≈ 338 µM)
CCOC(=O)CC(=O)c1ccc(C2(C(F)(F)F)N=N2)cc1 [compound 11] | > 64 | > 64 | – | MIC (Staphylococcus aureus; [6]): > 64 µg/mL
O=Cc1ccc(C2(C(F)(F)F)N=N2)cc1 [compound 25] | > 64 | > 64 | – | MIC (Staphylococcus aureus; [6]): > 64 µg/mL
CC[C@H]1OC(=O)[C@H](C)[C@@H](O[C@H]2C[C@@](C)(OC)[C@@H](O)[C@H](C)O2)[C@H](C)[C@@H](O[C@@H]2O[C@H](C)C[C@H](N(C)C)[C@H]2O)[C@](C)(O)C[C@@H](C)C(=O)[C@H](C)[C@@H](O)[C@]1(C)O [erythromycin, reference compound] | > 512 | 0.5 (≈ 0.681 µM) | – | MIC [3, 4]: > 512 µg/mL
CN[C@H](CC(C)C)C(=O)N[C@H]1C(=O)N[C@@H](CC(N)=O)C(=O)N[C@H]2C(=O)N[C@H]3C(=O)N[C@H](C(=O)N[C@H](C(=O)O)c4cc(O)cc(O)c4-c4cc3ccc4O)[C@H](O)c3ccc(c(Cl)c3)Oc3cc2cc(c3O[C@@H]2O[C@H](CO)[C@@H](O)[C@H](O)[C@H]2O[C@H]2C[C@](C)(N)[C@H](O)[C@H](C)O2)Oc2ccc(cc2Cl)[C@H]1O [vancomycin, reference compound] | – | – | – | MIC [1]: 2 µg/mL (≈ 1.38 µM); MIC ([2]; ATCC12600, 18 h): 2 µg/mL (≈ 1.38 µM); MIC [3]: 2 µg/mL (≈ 1.38 µM); MIC (Staphylococcus aureus): 2 µg/mL (≈ 1.38 µM)
gentamycin [reference compound] | – | – | – | MIC ATCC 43300 [1, 4]: 128 µg/mL; MIC ATCC 12600 ([2]; amount inhibiting >95% of growth (A600), 18 h, suffix 'I' = partial growth inhibition at the value, >95% at higher concentrations): 4 µg/mL; MIC ATCC 33591 [3, 4]: 4 µg/mL
